From ChEMBL document CHEMBL1131679, “Synthesis and activity of sulfonamide-substituted 4,5-diaryl thiazoles as selective cyclooxygenase-2 inhibitors” (Bioorg Med Chem Lett, 1999)

Assays:
[1] = target: T1, Prostaglandin G/H synthase 2 (Homo sapiens, UniProt P35354); assay: In vitro inhibitory activity against human Prostaglandin G/H synthase 2 (COX-2)
T1 sequence (P35354 whole entry): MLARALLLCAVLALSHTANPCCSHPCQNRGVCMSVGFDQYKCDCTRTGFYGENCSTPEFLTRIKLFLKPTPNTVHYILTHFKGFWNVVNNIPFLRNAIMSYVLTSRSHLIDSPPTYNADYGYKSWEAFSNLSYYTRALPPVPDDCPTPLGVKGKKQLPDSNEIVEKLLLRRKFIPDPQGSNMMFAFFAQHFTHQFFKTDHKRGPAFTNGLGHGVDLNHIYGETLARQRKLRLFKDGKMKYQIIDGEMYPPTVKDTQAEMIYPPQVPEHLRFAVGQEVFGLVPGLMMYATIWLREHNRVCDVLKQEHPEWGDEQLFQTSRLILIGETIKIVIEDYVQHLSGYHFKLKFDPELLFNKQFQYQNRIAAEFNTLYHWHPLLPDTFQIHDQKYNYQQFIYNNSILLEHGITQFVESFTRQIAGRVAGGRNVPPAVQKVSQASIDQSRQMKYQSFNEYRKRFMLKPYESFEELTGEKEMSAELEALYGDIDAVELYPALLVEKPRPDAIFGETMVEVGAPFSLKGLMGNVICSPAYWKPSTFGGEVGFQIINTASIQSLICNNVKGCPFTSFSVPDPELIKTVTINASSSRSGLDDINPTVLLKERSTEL

[2] = target: Prostaglandin G/H synthase 1 (Homo sapiens, UniProt P23219)
Description: Inhibition of human Prostaglandin G/H synthase 1

Rattus norvegicus = assay: In vivo activity was determined by rat pouch assay at concentration of 2 mg/kg; type: functional

Sequence of Prostaglandin G/H synthase 1 (P23219 whole entry): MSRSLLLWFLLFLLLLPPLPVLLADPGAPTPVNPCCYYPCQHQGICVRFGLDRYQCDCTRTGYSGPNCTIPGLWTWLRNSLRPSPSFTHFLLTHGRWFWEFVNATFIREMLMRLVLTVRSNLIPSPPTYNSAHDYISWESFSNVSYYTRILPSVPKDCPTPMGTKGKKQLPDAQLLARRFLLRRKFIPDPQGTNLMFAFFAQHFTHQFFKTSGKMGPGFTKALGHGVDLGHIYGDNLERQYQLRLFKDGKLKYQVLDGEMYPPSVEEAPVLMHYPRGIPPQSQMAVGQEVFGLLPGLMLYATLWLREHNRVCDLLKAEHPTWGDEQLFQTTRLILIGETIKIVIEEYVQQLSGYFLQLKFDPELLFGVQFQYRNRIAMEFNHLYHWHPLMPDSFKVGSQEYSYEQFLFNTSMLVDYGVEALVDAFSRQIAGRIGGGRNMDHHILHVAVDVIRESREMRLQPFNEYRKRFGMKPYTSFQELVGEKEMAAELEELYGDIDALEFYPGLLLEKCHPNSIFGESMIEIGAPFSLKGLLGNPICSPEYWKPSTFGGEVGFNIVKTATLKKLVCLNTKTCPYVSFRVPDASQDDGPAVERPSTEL

Row | SMILES | IC50 [1] [nM] | IC50 [2] [nM] | inhibition in vivo at 2 mg/kg (Rattus norvegicus) [%]
1 | COc1ccc(-c2nc(NCc3ccccc3)sc2-c2ccc(S(N)(=O)=O)cc2)cc1F | 59 | 10 | –
2 | Cc1nc(-c2ccc(S(N)(=O)=O)cc2)c(-c2ccccc2)s1 | 29 | 72500 | 7
3 | Cc1nc(-c2ccc(S(N)(=O)=O)cc2)c(-c2ccc(Cl)cc2)s1 | 18 | 35600 | 30
4 | Cc1nc(-c2ccccc2)c(-c2ccc(S(N)(=O)=O)cc2)s1 | 38 | 34000 | 59
5 | NS(=O)(=O)c1ccc(-c2sc(-c3ccccc3Cl)nc2-c2ccc(F)cc2)cc1 | 13 | 80 | 50
6 | NS(=O)(=O)c1ccc(-c2sc(COc3cc(Cl)cc(Cl)c3)nc2-c2ccc(F)cc2)cc1 | – | 120 | –
7 | COc1ccc(-c2nc(-c3ccccc3Cl)sc2-c2ccc(S(N)(=O)=O)cc2)cc1F | 2480 | > 100000 | 33
8 | Cc1nc(-c2ccc(Cl)cc2)c(-c2ccc(S(N)(=O)=O)cc2)s1 | 5 | 1840 | 42
9 | Cc1nc(-c2ccc(S(N)(=O)=O)cc2)c(-c2ccc(Br)cc2)s1 | 24 | 115000 | –
10 | COc1ccc(-c2nc(C)sc2-c2ccc(S(N)(=O)=O)cc2)cc1F | 28 | 4180 | –
